Earlier results on one substance are cited in publication PMC3819103 (Magnetic resonance in medicine : official journal of the …, 2010).

This data set concerns blood-brain barrier.

For “β-Ala(Mys)-Arg-Arg-Arg-Arg-Arg-Arg-Arg-Cys-NH2 [MPAP]”, the “Ability to cross the blood-brain barrier and localization” value is recorded as “could cross the blood-brain barrier, followed by localization to the cytoplasm”. Moreover, the “Delivery of a near-infrared dye across the blood-brain barrier” value (earlier studies) is reported as “can deliver a near-infrared dye across the blood-brain barrier”.
